From patent US20200016136A1 (VIIV HEALTHCARE UK (NO. 5) LIMITED, priority 2017, published 2020) come the findings set out here.

Broadly, the EC50 is the concentration giving half of the maximal effect.

In the assay the test system is NL-RLuc virus (recombinant NL4-3 HIV with Renilla Luciferase gene). Briefly: Inhibition of HIV replication (NL-RLuc virus in MT-2 cells, luciferase readout). As to conditions: MT2, 120 h. Type of assay: cell-based, Human immunodeficiency virus (HIV). The gist of the method:
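EC50 derived via median effect equation from at least 2 experiments, using luciferase expression as virus-growth readout. Replication-competent NL-RLuc reporter virus (nef partly replaced by Renilla luciferase) infected MT-2 cells with serial compound dilutions; 5-day incubation in RPMI 1640 plus 10% FBS.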
With `Cc1nc(C)c([C@H](OC(C)(C)C)C(=O)O)c(N2CCC(C)(C)CC2)c1-c1ccc2c(c1)CCN(c1cc(N3CCOCC3)nc(N3CCOCC3)n1)C2` [Example 86, (S)-2-(tert-Butoxy)-2-(4-(4,4-dimethylpiperidin-1-yl)-5-(2-(2,6-dimorpholinopyrimidin-4-yl)-1,2,3,4-tetrahydroisoquinolin-6-yl)-2,6-dimethylpyridin-3-yl)acetic Acid], the EC50 worked out at 4 nM.

In the case of `Cc1nc(C)c([C@H](OC(C)(C)C)C(=O)O)c(N2CCC(C)(C)CC2)c1-c1ccc2c(c1)CCN(c1nccc(N3CCC(C(C)(C)O)CC3)n1)C2` [Example 70, (S)-2-(tert-Butoxy)-2-(4-(4,4-dimethylpiperidin-1-yl)-5-(2-(4-(4-(2-hydroxypropan-2-yl)piperidin-1-yl)pyrimidin-2-yl)-1,2,3,4-tetrahydroisoquinolin-6-yl)-2,6-dimethylpyridin-3-yl)acetic Acid], the EC50 was determined as 5 nM.

Turning to `Cc1cc(F)ccc1CN1CCc2cc(-c3cnc(Cl)c([C@H](OC(C)(C)C)C(=O)O)c3N3CCC(C)(C)CC3)ccc2C1` [Example 113, (S)-2-(tert-Butoxy)-2-(2-chloro-4-(4,4-dimethylpiperidin-1-yl)-5-(2-(4-fluoro-2-methylbenzyl)-1,2,3,4-tetrahydroisoquinolin-6-yl)pyridin-3-yl)acetic Acid], the EC50 stood at 3 nM. The figure for `CC1(C)CCN(c2c(-c3ccc4c(c3)CCN(c3nccc(N5CCOCC5)n3)C4)cnc(Cl)c2[C@H](OC(C)(C)C)C(=O)O)CC1` [Example 148, (S)-2-(tert-Butoxy)-2-(2-chloro-4-(4,4-dimethylpiperidin-1-yl)-5-(2-(4-morpholinopyrimidin-2-yl)-1,2,3,4-tetrahydroisoquinolin-6-yl)pyridin-3-yl)acetic Acid] is 0.2 nM; for `Cc1nc(C)c([C@H](OC(C)(C)C)C(=O)O)c(N2CCC(C)(C)CC2)c1-c1ccc2c(c1)CCN(c1cc(N3CCC(O)CC3)ncn1)C2` [Example 125, (S)-2-(tert-Butoxy)-2-(4-(4,4-dimethylpiperidin-1-yl)-5-(2-(6-(4-hydroxypiperidin-1-yl)pyrimidin-4-yl)-1,2,3,4-tetrahydroisoquinolin-6-yl)-2,6-dimethylpyridin-3-yl)acetic Acid] it is 23 nM; for `Cc1nc(C)c([C@H](OC(C)(C)C)C(=O)O)c(N2CCC(C)(C)CC2)c1-c1ccc2c(c1)CCN(c1ncnc(N3CCC(CCO)CC3)n1)C2` [Example 63, (S)-2-(tert-Butoxy)-2-(4-(4,4-dimethylpiperidin-1-yl)-5-(2-(4-(4-(2-hydroxyethyl)piperidin-1-yl)-1,3,5-triazin-2-yl)-1,2,3,4-tetrahydroisoquinolin-6-yl)-2,6-dimethylpyridin-3-yl)acetic Acid] it is 4 nM. The figure for `Cc1cccc(Cl)c1CN1CCc2cc(-c3c(CO)ncc([C@H](OC(C)(C)C)C(=O)O)c3N3CCC(C)(C)CC3)ccc2C1` [Example 117, (S)-2-(tert-Butoxy)-2-(5-(2-(2-chloro-6-methylbenzyl)-1,2,3,4-tetrahydroisoquinolin-6-yl)-4-(4,4-dimethylpiperidin-1-yl)-6-(hydroxymethyl)pyridin-3-yl)acetic Acid] is 1 nM; for `Cc1cc(N2CCOCC2)nc(N2CCc3cc(-c4c(C)nc(C)c([C@H](OC(C)(C)C)C(=O)O)c4N4CCC(C)(C)CC4)ccc3C2)n1` [Example 37, (2S)-2-(tert-Butoxy)-2-[4-(4,4-dimethylpiperidin-1-yl)-2,6-dimethyl-5-{2-[4-methyl-6-(morpholin-4-yl)pyrimidin-2-yl]-1,2,3,4-tetrahydroisoquinolin-6-yl}pyridin-3-yl]acetic Acid] it is 1 nM. Next, `Cc1nc(C)c([C@H](OC(C)(C)C)C(=O)O)c(N2CCC(C)(C)CC2)c1-c1ccc2c(c1)CCN(c1nccc(N3CCC4(CCC4)CC3)n1)C2` [Example 25, (2S)-2-{5-[2-(4-{7-Azaspiro[3.5]nonan-7-yl}pyrimidin-2-yl)-1,2,3,4-tetrahydroisoquinolin-6-yl]-4-(4,4-dimethylpiperidin-1-yl)-2,6-dimethylpyridin-3-yl}-2-(tert-butoxy)acetic Acid]: 5 nM; `Cc1nc(CO)c([C@H](OC(C)(C)C)C(=O)O)c(N2CCC(C)(C)CC2)c1-c1ccc2c(c1)CCN(c1ncnc3c1oc1ccccc13)C2` [Example 133, (S)-2-(5-(2-(Benzofuro[3,2-d]pyrimidin-4-yl)-1,2,3,4-tetrahydroisoquinolin-6-yl)-4-(4,4-dimethylpiperidin-1-yl)-2-(hydroxymethyl)-6-methylpyridin-3-yl)-2-(tert-butoxy)acetic Acid]: 3 nM; `Cc1cc(F)ccc1CN1CCc2cc(-c3c(N)nc(Cl)c([C@H](OC(C)(C)C)C(=O)O)c3N3CCC(C)(C)CC3)ccc2C1` [Example 99, (S)-2-(6-Amino-2-chloro-4-(4,4-dimethylpiperidin-1-yl)-5-(2-(4-fluoro-2-methylbenzyl)-1,2,3,4-tetrahydroisoquinolin-6-yl)pyridin-3-yl)-2-(tert-butoxy)acetic Acid]: 4 nM. On to `Cc1nc(C)c([C@H](OC(C)(C)C)C(=O)O)c(N2CCC(C)(C)CC2)c1-c1ccc2c(c1)CCN(Cc1ccccc1)C2` [Example 52, (2S)-2-[5-(2-Benzyl-1,2,3,4-tetrahydroisoquinolin-6-yl)-4-(4,4-dimethylpiperidin-1-yl)-2,6-dimethylpyridin-3-yl]-2-(tert-butoxy)acetic Acid], for which the EC50 turned out to be 3 nM. Next, `Cc1cccc(Cl)c1CN1CCc2cc(-c3c(NCCCN(C)C)nc(C)c([C@H](OC(C)(C)C)C(=O)O)c3N3CCC(C)(C)CC3)ccc2C1` [Example 9, (S)-2-(tert-Butoxy)-2-(5-(2-(2-chloro-6-methylbenzyl)-1,2,3,4-tetrahydroisoquinolin-6-yl)-6-((3-(dimethylamino)propyl)amino)-4-(4,4-dimethylpiperidin-1-yl)-2-methylpyridin-3-yl)acetic Acid]: 2 nM. Next, `Cc1nc(C)c([C@H](OC(C)(C)C)C(=O)O)c(N2CCC(C)(C)CC2)c1-c1ccc2c(c1)CCN(c1ccnc(N3C4CCC3COC4)n1)C2` [Example 31, (2S)-2-(tert-Butoxy)-2-[4-(4,4-dimethylpiperidin-1-yl)-2,6-dimethyl-5-[2-(2-{3-oxa-8-azabicyclo[3.2.1]octan-8-yl}pyrimidin-4-yl)-1,2,3,4-tetrahydroisoquinolin-6-yl]pyridin-3-yl]acetic Acid]: 2 nM. Next, `Cc1cccc(Cl)c1CN1CCc2cc(-c3c(NCCN4CCOCC4)nc(C)c([C@H](OC(C)(C)C)C(=O)O)c3N3CCC(C)(C)CC3)ccc2C1` [Example 5, (S)-2-(tert-Butoxy)-2-(5-(2-(2-chloro-6-methylbenzyl)-1,2,3,4-tetrahydroisoquinolin-6-yl)-4-(4,4-dimethylpiperidin-1-yl)-2-methyl-6-((2-morpholinoethyl)amino)pyridin-3-yl)acetic Acid]: 2 nM; `Cc1ncc(-c2ccc3c(c2)CCN(c2nccc(N4CCOCC4)n2)C3)c(N2CCC(C)(C)CC2)c1[C@H](OC(C)(C)C)C(=O)O` [Example 26, (2S)-2-(tert-Butoxy)-2-[4-(4,4-dimethylpiperidin-1-yl)-2-methyl-5-{2-[4-(morpholin-4-yl)pyrimidin-2-yl]-1,2,3,4-tetrahydroisoquinolin-6-yl}pyridin-3-yl]acetic Acid]: 0.8 nM; `CCC(C)(C)O[C@H](C(=O)O)c1c(C)nc(C)c(-c2ccc3c(c2)CCN(c2ncnc4c2oc2ccccc24)C3)c1N1CCC(C)(C)CC1` [Example 141, (S)-2-(5-(2-(Benzofuro[3,2-d]pyrimidin-4-yl)-1,2,3,4-tetrahydroisoquinolin-6-yl)-4-(4,4-dimethylpiperidin-1-yl)-2,6-dimethylpyridin-3-yl)-2-(tert-pentyloxy)acetic Acid]: 2 nM. Take `Cc1nc(C)c([C@H](OC(C)(C)C)C(=O)O)c(N2CCC(C)(C)CC2)c1-c1ccc2c(c1)CCN(c1ncnc(N3CCOCC3)c1C)C2` [Example 77, (S)-2-(tert-Butoxy)-2-(4-(4,4-dimethylpiperidin-1-yl)-2,6-dimethyl-5-(2-(5-methyl-6-morpholinopyrimidin-4-yl)-1,2,3,4-tetrahydroisoquinolin-6-yl)pyridin-3-yl)acetic Acid]: the EC50 was 0.6 nM.

Consider `Cc1nc(C)c([C@H](OC(C)(C)C)C(=O)O)c(N2CCC(C)(C)CC2)c1-c1ccc2c(c1)CCN(c1ccnc(N3CCS(=O)(=O)CC3)n1)C2` [Example 45, (S)-2-(tert-Butoxy)-2-(4-(4,4-dimethylpiperidin-1-yl)-5-(2-(2-(1,1-dioxidothiomorpholino)pyrimidin-4-yl)-1,2,3,4-tetrahydroisoquinolin-6-yl)-2,6-dimethylpyridin-3-yl)acetic Acid], for which the EC50 turned out to be 8 nM. As to `Cc1ncc(-c2ccc3c(c2)CCN(c2nccc(-c4cccnc4)n2)C3)c(N2CCC(C)(C)CC2)c1[C@H](OC(C)(C)C)C(=O)O` [Example 146, (S)-2-(tert-Butoxy)-2-(4-(4,4-dimethylpiperidin-1-yl)-2-methyl-5-(2-(4-(pyridin-3-yl)pyrimidin-2-yl)-1,2,3,4-tetrahydroisoquinolin-6-yl)pyridin-3-yl)acetic Acid], the EC50 was found to be 0.5 nM. Next, `CC1(C)CCN(Cc2nc(Cl)c([C@H](OC(C)(C)C)C(=O)O)c(N3CCC(C)(C)CC3)c2-c2ccc3c(c2)CCN(c2ncnc4c2oc2ccccc24)C3)CC1` [Example 96, (S)-2-(5-(2-(Benzofuro[3,2-d]pyrimidin-4-yl)-1,2,3,4-tetrahydroisoquinolin-6-yl)-2-chloro-4-(4,4-dimethylpiperidin-1-yl)-6-((4,4-dimethylpiperidin-1-yl)methyl)pyridin-3-yl)-2-(tert-butoxy)acetic Acid]: 0.3 nM; `Cc1cccc(Cl)c1CN1CCc2cc(-c3c(NCCN4CCCCC4)nc(C)c([C@H](OC(C)(C)C)C(=O)O)c3N3CCC(C)(C)CC3)ccc2C1` [Example 4, (S)-2-(tert-Butoxy)-2-(5-(2-(2-chloro-6-methylbenzyl)-1,2,3,4-tetrahydroisoquinolin-6-yl)-4-(4,4-dimethylpiperidin-1-yl)-2-methyl-6-((2-(piperidin-1-yl)ethyl)amino)pyridin-3-yl)acetic Acid]: 4 nM.
